Assay results as given in patent US9133163B2, “Dihydropyrazole GPR40 modulators” (Bristol-Myers Squibb Company, priority 2012, dated 2015).

Legend:
C57BL6 mice = assay: Acute oral glucose tolerance test; format: in vivo; details: % change in glucose AUC (0-180 min) from vehicle, 0.3 mg/kg oral; for Acute oral glucose tolerance: co-administered with glucose 2 g/kg
Method: Acute Oral Glucose Tolerance Test
Ten week old C57BL6 mice were housed individually and fasted for 5 hours on the day of study. Tail vein sampling was performed from nicked tails to obtain plasma samples. Baseline plasma samples were taken at t=0. Mice were orally treated with vehicle or compounds co-administered with glucose (2 g/kg). Sampling thereafter from tails of treated mice at 20, 40, 60, 120 and 180 min provided data used for generating glucose excursion curves from which 0-180 min blood glucose excursion profiles were generated. The area under the curve (AUC) allowed for assessment of glucose lowering by compound treatments. Blood samples were collected in EDTA-treated tubes (MICROVETTE® CB300, Sarstedt, Numbrecht, Germany), stored on ice and spun @ 6000 rpm for 10 minutes. Plasma glucose was analyzed on the same day using an AU680 Clinical Chemistry Analyzer (Beckman Coulter, Brea, Calif.). Statistical analysis is a one way ANOVA with Dunnett's post hoc test or two-way student's t test where appropriate. P values less than 0.05 were considered statistically significant.

hGPR40 [1] = molecular target: T1, hGPR40 (Homo sapiens, UniProt O14842); assay: FDSS-based intracellular calcium assay; format: cell-based; set-up: 3xFLAG; expressed in transfected cells; details: intracellular Ca2+ response, cells expressing GPR40
T1 sequence (O14842 whole entry): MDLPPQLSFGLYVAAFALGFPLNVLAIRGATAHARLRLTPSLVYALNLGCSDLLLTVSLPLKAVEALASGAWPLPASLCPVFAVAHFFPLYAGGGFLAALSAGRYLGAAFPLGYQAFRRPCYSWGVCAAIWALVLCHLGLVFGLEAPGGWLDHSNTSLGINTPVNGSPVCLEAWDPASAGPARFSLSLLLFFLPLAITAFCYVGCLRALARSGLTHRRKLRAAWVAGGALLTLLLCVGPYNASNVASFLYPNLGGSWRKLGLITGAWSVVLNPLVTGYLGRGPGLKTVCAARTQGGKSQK
Method: FDSS-Based Intracellular Calcium Assay
Compounds are dissolved in DMSO and diluted to desired concentrations with assay buffer and added to the cells as 3× solution (20 μL per well). Run fluorescence/luminescence reader FDSS (Hamamatsu) to read intracellular Ca^2+ response.

hGPR40 [2] = molecular target: T1, hGPR40; assay: GPR40 IP-One HTRF assay in HEK293/GPR40 inducible cell lines; format: cell-based; set-up: expressed in transfected cells; details: HEK293 cells with tetracycline-inducible human GPR40; read-out: hGPR40 IP1 EC50
Method: GPR40 IP-One HTRF Assays in HEK293/GPR40 Inducible Cell Lines
Human, mouse and rat GPR40-mediated intracellular IP-One HTRF assays were established using human embryonic kidney HEK293 cells stably transfected with a tetracycline-inducible human, mouse or rat GPR40 receptor. Cells were routinely cultured in growth medium containing DMEM (Gibco Cat. #12430-047), 10% qualified FBS (Sigma, Cat. #F2442), 200 μg/ml hygromycin (Invitrogen, Cat. #16087-010) and 1.5 μg/ml blasticidin (Invitrogen, Cat. #R210-01). About 12-15 million cells were passed into a T175 tissue culture flask (BD FALCON® 353112) with growth medium and incubated for 16-18 hours (overnight) at 370 C with 5% CO2. The next day, assay medium was exchanged with growth medium containing 1000 ng/mL of tetracycline (Fluka Analytical, Cat. #87128) to induce GPR40 expression for 18-24 hours at […] incubator with 5% CO2. After induction, the cells were washed with PBS (Gibco, Cat. #14190-036) and detached with Cell Stripper (CELLGRO®, Cat. #25-056-CL). 10-20 mL growth medium were added to the flask and cells were collected in 50 mL tubes (FALCON®, Cat. #352098) and spun at 1000 RPM for 5 minutes. Culture medium was aspirated and the cells were resuspended in 10 mL of 1× IP-One Stimulation Buffer from the Cisbio IP-One kit (Cisbio, Cat. #62IPAPEJ). The cells were diluted to 1.4×10^6 cells/mL in Stimulation Buffer.
Test compounds were 3-fold, 11-point serially diluted in DMSO in a REMP assay plate (Matrix Cat. #4307) by BIOCEL® (Agilent). The compounds were transferred into an Echo plate (LABCYTE, Cat. #LP-0200) and […] of diluted compounds were transferred to an assay plate (proxi-plate from Perkin Elmer, Cat. #6008289) by Echo acoustic nano dispenser (LABCYTE, model ECHO550). 14 μL of the diluted cells were then added to the assay plate by Thermo (SN 836 330) CombiDrop and incubated at room temperature for 45 minutes. Then 3 μL of IP1 coupled to dye D2 from the Cisbio IP-One kit were added to the assay plate followed by 3 μL of Lumi4TM-Tb cryptate K from the kit. The plate was further incubated at room for 1 hour before reading on the Envision (Perkin Elmer Model2101) with an HTRF protocol. Activation data for the test compound over a range of concentrations was plotted as percentage activation of the test compound (100%=maximum response). After correcting for background [(sample read-mean of low control)/(mean of high control−mean of low control)](low control is DMSO without any compound), EC50 values were determined. The EC50 is defined as the concentration of test compound which produces 50% of the maximal response and was quantified using the 4 parameter logistic equation to fit the data.

`CCOc1ccc(F)c(N2CC[C@@H](Oc3ccc(N4N=C(C(F)(F)F)[C@@H](C)[C@@H]4CC(=O)O)cc3)[C@H](C)C2)c1` [Example 29, 2-((4S,5S)-1-(4-(((3R,4R)-1-(5-Ethoxy-2-fluorophenyl)-3-methylpiperidin-4-yl)oxy)phenyl)-4-methyl-3-(trifluoromethyl)-4,5-dihydro-1H-pyrazol-5-yl)acetic acid] was tested, and the “Acute oral glucose tolerance (average of two experiments)” value (C57BL6 mice; average of two experiments) was −52%, the EC50 (hGPR40 [1]) was 154 nM and the EC50 (hGPR40 [2]) was 11 nM.

With `COc1cc(N2CCC(Oc3ccc(N4N=C(C(F)(F)F)[C@@H](C)[C@@H]4CC(=O)O)cc3)CC2)c(Cl)cn1` [Example 77, 2-((4S,5S)-1-(4-((1-(5-Chloro-2-methoxypyridin-4-yl)piperidin-4-yl)oxy)phenyl)-4-methyl-3-(trifluoromethyl)-4,5-dihydro-1H-pyrazol-5-yl)acetic acid] the “Acute oral glucose tolerance” value (C57BL6 mice) was −38%, the EC50 (hGPR40 [1]) was 110 nM and the EC50 (hGPR40 [2]) was 20 nM.

In the case of `CCOc1ccc(F)c(N2CCC(Oc3ccc(N4N=C(c5ccc(C#N)cc5)[C@@H](C)[C@@H]4CC(=O)O)cc3)CC2)c1` [Example 93, 2-((4S,5S)-3-(4-Cyanophenyl)-1-(4-((1-(5-ethoxy-2-fluorophenyl)piperidin-4-yl)oxy)phenyl)-4-methyl-4,5-dihydro-1H-pyrazol-5-yl)acetic acid], the “Acute oral glucose tolerance” value (C57BL6 mice) is reported as −56%, the EC50 (hGPR40 [1]) is reported as 82 nM and the EC50 (hGPR40 [2]) is reported as 7 nM.

With `COc1cc(N2CC[C@@H](Oc3ccc(N4N=C(C(F)(F)F)[C@@H](C)[C@@H]4CC(=O)O)cc3)[C@H](C)C2)c(Cl)cn1` (single isomer, unassigned) [Example 81, Isomer 2 (neutral form)] the “Acute oral glucose tolerance” value (C57BL6 mice) was −54%, the EC50 (hGPR40 [1]) was 71 nM and the EC50 (hGPR40 [2]) was 9 nM.

With `CCOc1ccc(F)c(N2CCC(Oc3ccc(N4N=C(C(F)(F)F)[C@@H](C)[C@@H]4CC(=O)O)cc3)C(CC)C2)c1` (single isomer, unassigned) [Example 25 (Isomer 2)] the “Acute oral glucose tolerance” value (C57BL6 mice) was −38%, the EC50 (hGPR40 [1]) was 113 nM and the EC50 (hGPR40 [2]) was 21 nM.

For `COc1ccc(F)c(N2CCC(Oc3ccc(N4N=C(C(F)(F)F)[C@@H](C)[C@@H]4CC(=O)O)cc3)CC2)c1` [Example 1, 2-((4S,5S)-1-(4-((1-(2-Fluoro-5-methoxyphenyl)piperidin-4-yl)oxy)phenyl)-4-methyl-3-(trifluoromethyl)-4,5-dihydro-1H-pyrazol-5-yl)acetic acid], the “Acute oral glucose tolerance” value (C57BL6 mice) was −47%, the EC50 (hGPR40 [1]) was 114 nM and the EC50 (hGPR40 [2]) was 17 nM.
